Article PMC7413254 (Nature Communications, 2020)
Where two headings read alike, the source gives them in different places.

Columns and labels:
non-expressing oocytes [1] = type: cell-based, Xenopus laevis; conditions: non-expressing oocytes, total [3H]CQ transport, normalised to the oocyte type control
Outline: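 Oocytes (ten per treatment, ≥4 independent frogs/days) were preloaded by injecting VF-6 in 25 nL ND96 at pH 5.0, 5.5, 6.0 or 7.0, or Na^+-free choline buffer, then uptake run 1.5 h, 27.5 °C, ND96 pH 5.5 by default. Internal concentrations assumed ~400 nL oocyte volume.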

PfCRT^Ecu1110 [2] = biological target: T1, PfCRT^Ecu1110 (Plasmodium falciparum, UniProt Q9N623, A220S/I356L/K76T/N326D); assay: cell-based; type: cell-based; conditions: for Uptake of [3H]CQ (% PfCRTEcu1110 control), trans-stimulation / PfCRT-mediated [3H]CQ transport, trans-stimulation (% PfCRTEcu1110 control): PfCRTEcu1110 oocytes; for Uptake of [3H]CQ (% PfCRTEcu1110 control), trans-stimulation: total [3H]CQ transport, normalised to the oocyte type control; for PfCRT-mediated [3H]CQ transport, trans-stimulation (% PfCRTEcu1110 control): normalised to oocyte type control; for [3H]CQ transport (% PfCRTDd2 control), trans-stimulation, PfCRTEcu1110: PfCRT-mediated component (background subtracted), sheet title says normalised to PfCRTDd2 control, mean ± SEM, SEM
Outline: (§1)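 Transport measured in Xenopus oocytes expressing the transporters, 1.5 h at 27.5 °C in ND96 pH 5.5 unless noted. For trans-stimulation, VF-6 injected in 25 nL ND96 at pH 5.0–7.0 or Na^+-free (choline) buffer; intracellular levels based on ~400 nL oocyte volume. Ten oocytes per treatment, ≥4 experiments.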

PfNT1 = biological target: T2, PfNT1 (Plasmodium falciparum, UniProt Q8IDM6); assay: cell-based; type: cell-based; conditions: PfNT1 oocytes, total [3H]CQ transport, normalised to the oocyte type control
T2 construct: expressed in transfected cells; host or cells: Xenopus laevis oocytes (stage V-VI), cRNA-injected
Outline: as §1

PfCRT^3D7 [3] = biological target: T3, PfCRT^3D7 (Plasmodium falciparum, UniProt Q8IBZ9); assay: cell-based; type: cell-based; conditions: PfCRT3D7 oocytes; for Uptake of [3H]CQ (% PfCRT3D7 control), trans-stimulation: total [3H]CQ transport, normalised to the oocyte type control; for PfCRT-mediated [3H]CQ transport, trans-stimulation (% PfCRT3D7 control): normalised to oocyte type control
Outline: as §1

PfCRT^Dd2 [4] = biological target: T4, PfCRT^Dd2 (Plasmodium falciparum, UniProt Q9N623, A220S/I356T/K76T/M74I/N326S/N75E/Q271E/R371I); assay: cell-based; type: cell-based; conditions: for Uptake of [3H]CQ (% PfCRTDd2 control), trans-stimulation / PfCRT-mediated [3H]CQ transport, trans-stimulation (% PfCRTDd2 control): PfCRTDd2 oocytes; for Uptake of [3H]CQ (% PfCRTDd2 control), trans-stimulation: total [3H]CQ transport, normalised to the oocyte type control; for PfCRT-mediated [3H]CQ transport, trans-stimulation (% PfCRTDd2 control): normalised to oocyte type control; for [3H]CQ transport (% PfCRTDd2 control), trans-stimulation, PfCRTDd2: PfCRT-mediated component (background subtracted), mean ± SEM, SEM
Outline: as §1

non-expressing oocytes [5] = assay: cells; type: cell-based, Xenopus laevis; conditions: non-expressing oocytes, total [3H]CQ transport, normalised to the oocyte type control
Outline: (§2)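 Washed oocytes (ten per treatment) were exposed to label in pH 5.5 ND96 for 1.5 h at 27.5 °C. Buffer was then removed, cells rinsed in ice-cold ND96, lysed in SDS and counted.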

PfCRT^3D7 [6] = biological target: T3, PfCRT^3D7; assay: cell-based; type: cell-based; conditions: PfCRT3D7 oocytes, total [3H]CQ transport, normalised to the oocyte type control
Outline: as §2

PfCRT^Ecu1110 [7] = biological target: T1, PfCRT^Ecu1110; assay: [3H]CQ uptake into Xenopus oocytes, cis-inhibition by unlabelled solute; type: cell-based; conditions: for Uptake of [3H]CQ (% PfCRTEcu1110 control), cis-inhibition / PfCRT-mediated [3H]CQ transport, cis-inhibition (% PfCRTEcu1110 control): PfCRTEcu1110 oocytes; for Uptake of [3H]CQ (% PfCRTEcu1110 control), cis-inhibition: total [3H]CQ transport, normalised to the oocyte type control; for PfCRT-mediated [3H]CQ transport, cis-inhibition (% PfCRTEcu1110 control): background [3H]CQ accumulation subtracted, normalised to oocyte type control; for [3H]CQ transport (% PfCRTEcu1110 control), cis-inhibition, PfCRTEcu1110: PfCRT-mediated component (background subtracted), sheet title says normalised to PfCRTDd2 control, mean ± SEM, SEM
Outline: as §2

PfCRT^Dd2 [8] = biological target: T4, PfCRT^Dd2; assay: as above; type: cell-based; conditions: PfCRTDd2 oocytes, background [3H]CQ accumulation subtracted, normalised to oocyte type control
Outline: as §2

[9] = [test solute]i = 45 mM (30 mM for some solutes due to solubility)
[10] = [test solute]i = 5 mM (intracellular)
[11] = [test solute]i = 45 mM (intracellular; 30 mM for some solutes due to solubility)
[12] = [test solute]i = 5 mM (injected)

T4 sequence (Q9N623 whole entry A220S/I356T/K76T/M74I/N326S/N75E/Q271E/R371I): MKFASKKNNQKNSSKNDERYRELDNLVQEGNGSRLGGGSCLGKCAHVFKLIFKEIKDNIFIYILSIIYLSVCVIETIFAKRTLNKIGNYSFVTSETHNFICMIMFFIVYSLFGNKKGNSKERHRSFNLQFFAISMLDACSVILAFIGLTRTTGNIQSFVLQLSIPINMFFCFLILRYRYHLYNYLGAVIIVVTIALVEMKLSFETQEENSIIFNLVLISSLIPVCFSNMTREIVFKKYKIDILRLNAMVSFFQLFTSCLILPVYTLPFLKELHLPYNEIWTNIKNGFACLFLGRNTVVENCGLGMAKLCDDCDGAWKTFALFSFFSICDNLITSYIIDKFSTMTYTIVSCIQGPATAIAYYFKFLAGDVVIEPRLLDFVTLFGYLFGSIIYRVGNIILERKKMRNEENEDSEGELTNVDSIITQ
T1 sequence (Q9N623 whole entry A220S/I356L/K76T/N326D): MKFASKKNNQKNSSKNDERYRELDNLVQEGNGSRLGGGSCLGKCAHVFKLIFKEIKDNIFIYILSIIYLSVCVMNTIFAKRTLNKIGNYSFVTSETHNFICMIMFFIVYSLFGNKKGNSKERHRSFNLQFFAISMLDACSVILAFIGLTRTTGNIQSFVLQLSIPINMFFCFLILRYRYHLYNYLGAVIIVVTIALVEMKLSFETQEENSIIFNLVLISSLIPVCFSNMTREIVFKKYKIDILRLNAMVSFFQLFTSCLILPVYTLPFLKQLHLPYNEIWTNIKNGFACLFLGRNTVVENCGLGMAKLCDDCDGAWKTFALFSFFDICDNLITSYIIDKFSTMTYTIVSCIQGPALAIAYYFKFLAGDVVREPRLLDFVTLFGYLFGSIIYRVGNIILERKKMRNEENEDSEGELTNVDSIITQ
T3 sequence (Q8IBZ9 59-398): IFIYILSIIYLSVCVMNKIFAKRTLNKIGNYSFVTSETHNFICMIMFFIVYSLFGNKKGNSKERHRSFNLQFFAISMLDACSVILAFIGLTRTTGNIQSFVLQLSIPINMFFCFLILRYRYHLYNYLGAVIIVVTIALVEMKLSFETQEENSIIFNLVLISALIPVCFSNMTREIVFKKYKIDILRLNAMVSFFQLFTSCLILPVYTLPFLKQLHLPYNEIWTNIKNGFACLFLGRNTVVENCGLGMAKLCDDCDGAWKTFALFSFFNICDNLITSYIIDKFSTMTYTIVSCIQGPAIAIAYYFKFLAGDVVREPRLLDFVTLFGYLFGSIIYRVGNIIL
T2 sequence (Q8IDM6 whole entry): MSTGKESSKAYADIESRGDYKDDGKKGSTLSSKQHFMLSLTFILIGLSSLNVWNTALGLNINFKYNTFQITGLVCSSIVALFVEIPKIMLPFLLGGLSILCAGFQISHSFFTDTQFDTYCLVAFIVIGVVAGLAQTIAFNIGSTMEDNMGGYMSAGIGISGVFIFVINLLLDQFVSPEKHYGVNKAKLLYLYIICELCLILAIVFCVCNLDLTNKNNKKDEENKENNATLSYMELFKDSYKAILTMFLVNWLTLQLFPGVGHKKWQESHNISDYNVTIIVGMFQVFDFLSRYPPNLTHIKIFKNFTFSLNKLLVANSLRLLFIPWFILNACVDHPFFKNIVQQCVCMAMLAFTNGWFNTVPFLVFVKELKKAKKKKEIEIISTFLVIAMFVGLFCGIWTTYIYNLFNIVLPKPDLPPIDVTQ

PEEK [PK-4] was tested, and the “Uptake of [3H]CQ (% non-expressing oocyte control), trans-stimulation” value (non-expressing oocytes [1]; [test solute]i = 5 mM) was 100 ± 1.8 % non-expressing oocyte control, the “Uptake of [3H]CQ (% non-expressing oocyte control), trans-stimulation” value (non-expressing oocytes [1]; [9]) was 99 ± 1.5 % non-expressing oocyte control and the “Uptake of [3H]CQ (% PfCRTEcu1110 control), trans-stimulation” value (PfCRT^Ecu1110 [2]; [test solute]i = 5 mM) was 99 ± 1.4 % PfCRTEcu1110 control. The “Uptake of [3H]CQ (% PfCRTEcu1110 control), trans-stimulation” value (PfCRT^Ecu1110 [2]; [9]) was 97 ± 2.4 % PfCRTEcu1110 control, the “PfCRT-mediated [3H]CQ transport, trans-stimulation (% PfCRTEcu1110 control)” value (PfCRT^Ecu1110 [2]; [10]) was 97 ± 2.7 % PfCRTEcu1110 control and the “PfCRT-mediated [3H]CQ transport, trans-stimulation (% PfCRTEcu1110 control)” value (PfCRT^Ecu1110 [2]; [11]) was 95 ± 3.5 % PfCRTEcu1110 control. For the same substance, the “[3H]CQ transport (% PfCRTDd2 control), trans-stimulation, PfCRTEcu1110” value (PfCRT^Ecu1110 [2]; [12]) was 29 ± 1.1 % PfCRTEcu1110 control, the “[3H]CQ transport (% PfCRTDd2 control), trans-stimulation, PfCRTEcu1110” value (PfCRT^Ecu1110 [2]; [9]) was 29 ± 1.2 % PfCRTEcu1110 control and the “Uptake of [3H]CQ (% PfNT1 control), trans-stimulation” value (PfNT1; [test solute]i = 5 mM) was 99 ± 2.1 % PfNT1 control. The “Uptake of [3H]CQ (% PfNT1 control), trans-stimulation” value (PfNT1; [9]) was 100 ± 2.7 % PfNT1 control, the “Uptake of [3H]CQ (% PfCRT3D7 control), trans-stimulation” value (PfCRT^3D7 [3]; [test solute]i = 5 mM) was 99 ± 2.1 % PfCRT3D7 control and the “Uptake of [3H]CQ (% PfCRT3D7 control), trans-stimulation” value (PfCRT^3D7 [3]; [9]) was 100 ± 1.7 % PfCRT3D7 control. For the same substance, the “PfCRT-mediated [3H]CQ transport, trans-stimulation (% PfCRT3D7 control)” value (PfCRT^3D7 [3]; [10]) was 97 ± 3.8 % PfCRT3D7 control, the “PfCRT-mediated [3H]CQ transport, trans-stimulation (% PfCRT3D7 control)” value (PfCRT^3D7 [3]; [11]) was 98 ± 3.2 % PfCRT3D7 control and the “Uptake of [3H]CQ (% PfCRTDd2 control), trans-stimulation” value (PfCRT^Dd2 [4]; [test solute]i = 5 mM) was 97 ± 2.1 % PfCRTDd2 control. The “Uptake of [3H]CQ (% PfCRTDd2 control), trans-stimulation” value (PfCRT^Dd2 [4]; [9]) was 97 ± 3.2 % PfCRTDd2 control, the “PfCRT-mediated [3H]CQ transport, trans-stimulation (% PfCRTDd2 control)” value (PfCRT^Dd2 [4]; [10]) was 95 ± 4.4 % PfCRTDd2 control and the “PfCRT-mediated [3H]CQ transport, trans-stimulation (% PfCRTDd2 control)” value (PfCRT^Dd2 [4]; [11]) was 100 ± 4.3 % PfCRTDd2 control. For the same substance, the “[3H]CQ transport (% PfCRTDd2 control), trans-stimulation, PfCRTDd2” value (PfCRT^Dd2 [4]; [12]) was 95 ± 4.4 % PfCRTDd2 control, the “[3H]CQ transport (% PfCRTDd2 control), trans-stimulation, PfCRTDd2” value (PfCRT^Dd2 [4]; [9]) was 100 ± 4.3 % PfCRTDd2 control and the “Uptake of [3H]CQ (% non-expressing oocyte control), cis-inhibition” value (non-expressing oocytes [5]; [test solute] = 0.5 mM) was 100 ± 5.8 % non-expressing oocyte control. For the same substance, the “Uptake of [3H]CQ (% non-expressing oocyte control), cis-inhibition” value (non-expressing oocytes [5]; [test solute] = 1 mM) was 99 ± 5.3 % non-expressing oocyte control, the “Uptake of [3H]CQ (% PfCRT3D7 control), cis-inhibition” value (PfCRT^3D7 [6]; [test solute] = 0.5 mM) was 102 ± 4.4 % PfCRT3D7 control and the “Uptake of [3H]CQ (% PfCRT3D7 control), cis-inhibition” value (PfCRT^3D7 [6]; [test solute] = 1 mM) was 99 ± 4.7 % PfCRT3D7 control. For the same substance, the “Uptake of [3H]CQ (% PfCRT3D7 control), cis-inhibition” value (PfCRT^3D7 [6]; [test solute] = 2 mM) was 98 ± 3.7 % PfCRT3D7 control, the “Uptake of [3H]CQ (% PfCRTEcu1110 control), cis-inhibition” value (PfCRT^Ecu1110 [7]; [test solute] = 0.5 mM) was 51 ± 3.2 % PfCRTEcu1110 control and the “Uptake of [3H]CQ (% PfCRTEcu1110 control), cis-inhibition” value (PfCRT^Ecu1110 [7]; [test solute] = 1 mM) was 47 ± 3.2 % PfCRTEcu1110 control. For the same substance, the “Uptake of [3H]CQ (% PfCRTEcu1110 control), cis-inhibition” value (PfCRT^Ecu1110 [7]; [test solute] = 2 mM) was 33 ± 2.6 % PfCRTEcu1110 control, the “PfCRT-mediated [3H]CQ transport, cis-inhibition (% PfCRTEcu1110 control)” value (PfCRT^Ecu1110 [7]; [test solute] = 0.5 mM) was 46 ± 1.6 % PfCRTEcu1110 control and the “PfCRT-mediated [3H]CQ transport, cis-inhibition (% PfCRTEcu1110 control)” value (PfCRT^Ecu1110 [7]; [test solute] = 1 mM) was 42 ± 4.2 % PfCRTEcu1110 control. The “PfCRT-mediated [3H]CQ transport, cis-inhibition (% PfCRTEcu1110 control)” value (PfCRT^Ecu1110 [7]; [test solute] = 2 mM) was 27 ± 1.9 % PfCRTEcu1110 control, the “[3H]CQ transport (% PfCRTEcu1110 control), cis-inhibition, PfCRTEcu1110” value (PfCRT^Ecu1110 [7]; [test solute] = 0.5 mM) was 14 ± 0.2 % PfCRTEcu1110 control and the “[3H]CQ transport (% PfCRTEcu1110 control), cis-inhibition, PfCRTEcu1110” value (PfCRT^Ecu1110 [7]; [test solute] = 1 mM) was 13 ± 0.4 % PfCRTEcu1110 control. The “[3H]CQ transport (% PfCRTEcu1110 control), cis-inhibition, PfCRTEcu1110” value (PfCRT^Ecu1110 [7]; [test solute] = 2 mM) was 9.0 ± 0.04 % PfCRTEcu1110 control, the “PfCRT-mediated [3H]CQ transport, cis-inhibition (% PfCRTDd2 control)” value (PfCRT^Dd2 [8]; [test solute] = 0.5 mM) was 57 ± 2.0 % PfCRTDd2 control and the “PfCRT-mediated [3H]CQ transport, cis-inhibition (% PfCRTDd2 control)” value (PfCRT^Dd2 [8]; [test solute] = 1 mM) was 44 ± 2.1 % PfCRTDd2 control. For the same substance, the “PfCRT-mediated [3H]CQ transport, cis-inhibition (% PfCRTDd2 control)” value (PfCRT^Dd2 [8]; [test solute] = 2 mM) was 37 ± 2.2 % PfCRTDd2 control.
